According to patent US4175081A, “5-Substituted thiadiazole ureas” (priority 1977, dated 1979):

Tests used:
[1] = tested on: Corn (CN); experiment: Pre-emergence herbicide test; type: in vivo; conditions: Zea mays, 336 h, two weeks after treatment; for pest or weed control at 8966.8 g/ha: 8 lb/acre
Outline: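 Visual injury/control ratings were made 2 weeks post-spray on corn pots seeded (4 seeds, seed-diameter depth) the day before treatment. Application was a belt-hood spray of 38 gal/acre delivering 8 lbs active per acre, with a 4 lbs/acre rate also formulated. Watering was by sub-irrigation throughout.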

[2] = tested on: Barnyard grass (BG); experiment: Pre-emergence herbicide test; type: in vivo; conditions: Echinochloa crus-galli, 336 h, two weeks after treatment; for pest or weed control at 8966.8 g/ha: 8 lb/acre
Outline: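 Greenhouse pre-emergence spray test: pots seeded one day before treatment received compound at rates of 8 or 4 lb/acre (38 gal/acre). Visual injury/control scores for Echinochloa crus-galli taken at two weeks, with watering by sub-irrigation only.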

[3] = tested on: Corn (CN); experiment: Post-emergence herbicide test; type: in vivo; conditions: Zea mays, 336 h, two weeks after treatment; for pest or weed control at 8966.8 g/ha: 8 lb/acre
Outline: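 Greenhouse seedlings grown in potting soil and sprayed post-emergence at 8 lbs compound/acre (formulations also made for 4 lbs/acre) in 38 gallons/acre spray volume. Watering by sub-irrigation only. Injury or control rated visually two weeks after treatment.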

[4] = tested on: Barnyard grass (BG); experiment: Post-emergence herbicide test; type: in vivo; conditions: Echinochloa crus-galli, 336 h, two weeks after treatment; for pest or weed control at 8966.8 g/ha: 8 lb/acre
Outline: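 Greenhouse pot-grown barnyard grass seedlings sprayed post-emergence at 8 lbs active compound per acre (some at 4 lbs/acre) in 38 gallons per acre, then sub-irrigated. Injury or control rated visually two weeks after treatment.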

[5] = tested on: Amaranth pigweed (PW); experiment: Post-emergence herbicide test; type: in vivo, Amaranthus retroflexus; conditions: 336 h, two weeks after treatment; for pest or weed control at 8966.8 g/ha: 8 lb/acre
Outline: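 Visual injury or control ratings were made two weeks after spraying, with greenhouse watering by sub-irrigation only. Treatment was post-emergence, when pigweed seedlings had 1 or 2 true leaves, at 8 lbs active compound per acre (4 lbs/acre formulations also made) in a 38 gallons-per-acre spray volume.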

[6] = tested on: Yellow foxtail grass (YF); experiment: Pre-emergence herbicide test; type: in vivo, Setaria glauca; conditions: Setaria, 336 h, two weeks after treatment; for pest or weed control at 8966.8 g/ha: 8 lb/acre
Outline: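 Visual rating of injury/control made two weeks after a pre-emergence spray of 8 or 4 lbs active per acre (38 gal/acre) onto pots seeded the previous day. Greenhouse watering by sub-irrigation only.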

[7] = tested on: Amaranth pigweed (PW); experiment: Pre-emergence herbicide test; type: in vivo, Amaranthus retroflexus; conditions: 336 h, two weeks after treatment; for pest or weed control at 8966.8 g/ha: 8 lb/acre
Outline: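 Visual injury or control ratings were made at two weeks on pre-emergence pots, sub-irrigated in the greenhouse. Seeds were sown a day before a hood spray delivering 8 lbs/acre (or 4 lbs/acre) of compound in 38 gallons per acre.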

[8] = tested on: Bean (BN); experiment: Pre-emergence herbicide test; type: in vivo, Phaseolus vulgaris var. Black Valentine; conditions: Phaseolus vulgaris, 336 h, two weeks after treatment; for pest or weed control at 8966.8 g/ha: 8 lb/acre
Outline: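 Visual injury/control ratings were taken two weeks post-spray on sub-irrigated Phaseolus vulgaris var. Black Valentine. Pots were sown a day before treatment. Pre-emergence spray delivered 8 lbs actual compound per acre (or 4 lbs/acre) at 38 gallons per acre.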

[9] = tested on: Crabgrass (CG); experiment: Post-emergence herbicide test; type: in vivo, Digitaria sanquinalis; conditions: Digitaria sanguinalis, post-emergence, 336 h, two weeks after treatment; for pest or weed control at 8966.8 g/ha: 8 lb/acre
Outline: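 Crabgrass (Digitaria sanquinalis) was surface seeded individually in 3' plastic pots of potting soil, covered with screened soil, and watered by sub-irrigation in greenhouse trays. Planting was staggered so seedlings reached the target stage together. Post-emergence sprays were applied in a hood with a removable belt and fixed nozzle, and control was visually rated two weeks after treatment.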

[10] = tested on: Bean (BN); experiment: Post-emergence herbicide test; type: in vivo, Phaseolus vulgaris var. Black Valentine; conditions: Phaseolus vulgaris, post-emergence, 336 h, two weeks after treatment; for pest or weed control at 8966.8 g/ha: 8 lb/acre
Outline: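 Bean seedlings (Phaseolus vulgaris var. Black Valentine) were grown in potting soil in 3' pots until the primary leaves expanded. They were then sprayed under a hood with a removable belt and fixed nozzle, using 50 ml formulations. Afterward they were returned to the greenhouse and watered only by sub-irrigation. Percent control was judged visually two weeks after treatment.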

[11] = tested on: Cotton (CT); experiment: Post-emergence herbicide test; type: in vivo, Gossypium hirsutum var. DPL smooth leaf; conditions: Gossypium hirsutum, post-emergence, 336 h, two weeks after treatment; for pest or weed control at 8966.8 g/ha: 8 lb/acre
Outline: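 This greenhouse post-emergence test measured how well spray treatments controlled cotton. Seedlings of Gossypium hirsutum var. DPL smooth leaf, with expanded cotyledons and a first true leaf 1' in length, were sprayed with 50 ml formulations in a belt-fed spray hood. They were then returned to the greenhouse and watered only by sub-irrigation. Injury was scored visually as % control after two weeks.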

[12] = tested on: Yellow foxtail grass (YF); experiment: Post-emergence herbicide test; type: in vivo, Setaria glauca; conditions: Setaria, 336 h, two weeks after treatment; for pest or weed control at 8966.8 g/ha: 8 lb/acre
Outline: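 Visual rating of injury/control made 2 weeks post-spray. Seedlings at a uniform growth stage in soil-filled pots received a hood spray of 8 lbs/acre active compound, 38 gallons/acre volume, with a 4 lbs/acre rate also formulated. Watering was by sub-irrigation only.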

[13] = tested on: Johnson grass (JG); experiment: Post-emergence herbicide test; type: in vivo, Sorgum helepense; conditions: Sorghum halepense, 336 h, two weeks after treatment; for pest or weed control at 8966.8 g/ha: 8 lb/acre
Outline: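 Visual injury or control scores taken 2 weeks after a post-emergence spray of pot-grown plants. Application was 8 lbs/acre (or 4 lbs/acre) in 38 gal/acre. Plants were held in the greenhouse with sub-irrigation only.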

[14] = tested on: Cotton (CT); experiment: Pre-emergence herbicide test; type: in vivo, Gossypium hirsutum var. DPL smooth leaf; conditions: Gossypium hirsutum, 336 h, two weeks after treatment; for pest or weed control at 8966.8 g/ha: 8 lb/acre
Outline: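 Visual injury/control ratings were taken at two weeks post-spray. Pots seeded a day earlier received compound pre-emergence at 8 lbs/acre, or 4 lbs/acre, in a 38 gallon/acre spray volume, and were then held in the greenhouse, watered only from below.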

[15] = tested on: Turnip (TP); experiment: Post-emergence herbicide test; type: in vivo, Brassica sp.; conditions: Brassica rapa, post-emergence, 336 h, two weeks after treatment; for pest or weed control at 8966.8 g/ha: 8 lb/acre
Outline: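 A greenhouse post-emergence herbicide test on turnip. Seeds were sown on the surface of potting soil in 3' plastic pots, lightly covered with screened soil and watered from below. Planting was timed so seedlings had 1 or 2 true leaves above the cotyledons at spraying, done in a hood with a fixed nozzle. Control or injury was scored by eye after two weeks.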

[16] = tested on: Turnip (TP); experiment: Pre-emergence herbicide test; type: in vivo, Brassica sp.; conditions: Brassica rapa, pre-emergence, 336 h, two weeks after treatment; for pest or weed control at 8966.8 g/ha: 8 lb/acre
Outline: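 In this pre-emergence greenhouse test, turnip was seeded on the surface of potting soil in 3' plastic pots, lightly covered with screened soil, and watered from below. One day later the pots were sprayed in a belt-fed spray hood. Watering continued only by sub-irrigation, and percent control was visually scored two weeks after treatment.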

[17] = tested on: Crabgrass (CG); experiment: Pre-emergence herbicide test; type: in vivo, Digitaria sanquinalis; conditions: Digitaria sanguinalis, pre-emergence, 336 h, two weeks after treatment; for pest or weed control at 8966.8 g/ha: 8 lb/acre
Outline: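 Crabgrass (Digitaria sanquinalis) was surface seeded in 3' plastic pots of potting soil, covered with screened soil, and watered by sub-irrigation in greenhouse trays. Pots were seeded one day before spraying in a hood with a moving belt and fixed nozzle. Plants stayed in the greenhouse on sub-irrigation, and pre-emergence control was rated visually two weeks after treatment.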

[18] = tested on: Johnson grass (JG); experiment: Pre-emergence herbicide test; type: in vivo, Sorgum helepense; conditions: Sorghum halepense, 336 h, two weeks after treatment; for pest or weed control at 8966.8 g/ha: 8 lb/acre
Outline: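 Visual injury or control rating two weeks post-treatment, after pre-emergence spray of 8 or 4 lbs active per acre (38 gal/acre) onto pots sown the previous day. Greenhouse watering by sub-irrigation only.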

Question: What does the source list for `CNC(=O)Nc1nnc(S(C)(=O)=O)s1` [Example 33]?
Answer: pest or weed control at 2241.7 g/ha ([1]; 2 lb/acre): 20%; pest or weed control at 4483.4 g/ha ([1]; 4 lb/acre): 20%; pest or weed control at 8966.8 g/ha [1]: 70%; pest or weed control at 2241.7 g/ha ([2]; 2 lb/acre): 70%; pest or weed control at 4483.4 g/ha ([2]; 4 lb/acre): 90%; pest or weed control at 8966.8 g/ha [2]: 80%; pest or weed control ([3]; 2 lb/acre): 20%; pest or weed control at 4483.4 g/ha ([3]; 4 lb/acre): 10%; pest or weed control at 8966.8 g/ha [3]: 100%; pest or weed control at 2241.7 g/ha ([4]; 2 lb/acre): 70%; pest or weed control at 4483.4 g/ha ([4]; 4 lb/acre): 70%; pest or weed control at 8966.8 g/ha [4]: 100%; pest or weed control at 2241.7 g/ha ([5]; 2 lb/acre): 50%; pest or weed control at 4483.4 g/ha ([5]; 4 lb/acre): 100%; pest or weed control at 8966.8 g/ha [5]: 100%; pest or weed control at 2241.7 g/ha ([6]; 2 lb/acre): 70%; pest or weed control at 4483.4 g/ha ([6]; 4 lb/acre): 90%; pest or weed control at 8966.8 g/ha [6]: 80%; pest or weed control at 2241.7 g/ha ([7]; 2 lb/acre): 50%; pest or weed control at 4483.4 g/ha ([7]; 4 lb/acre): 60%; pest or weed control at 8966.8 g/ha [7]: 70%; pest or weed control at 2241.7 g/ha ([8]; 2 lb/acre): 100%; pest or weed control at 4483.4 g/ha ([8]; 4 lb/acre): 90%; pest or weed control at 8966.8 g/ha [8]: 90%; pest or weed control ([9]; 2 lb/acre): 90%; pest or weed control at 4483.4 g/ha ([9]; 4 lb/acre): 60%; pest or weed control at 8966.8 g/ha [9]: 90%; pest or weed control at 2241.7 g/ha ([10]; 2 lb/acre): 100%; pest or weed control at 4483.4 g/ha ([10]; 4 lb/acre): 100%; pest or weed control at 8966.8 g/ha [10]: 100%; pest or weed control at 2241.7 g/ha ([11]; 2 lb/acre): 40%; pest or weed control at 4483.4 g/ha ([11]; 4 lb/acre): 100%; pest or weed control at 8966.8 g/ha [11]: 100%; pest or weed control ([12]; 2 lb/acre): 70%; pest or weed control at 4483.4 g/ha ([12]; 4 lb/acre): 100%; pest or weed control at 8966.8 g/ha [12]: 90%; pest or weed control ([13]; 2 lb/acre): 80%; pest or weed control at 4483.4 g/ha ([13]; 4 lb/acre): 50%; pest or weed control at 8966.8 g/ha [13]: 40%; pest or weed control at 2241.7 g/ha ([14]; 2 lb/acre): 40%; pest or weed control at 4483.4 g/ha ([14]; 4 lb/acre): 50%; pest or weed control at 8966.8 g/ha [14]: 50%; pest or weed control at 2241.7 g/ha ([15]; 2 lb/acre): 90%; pest or weed control at 4483.4 g/ha ([15]; 4 lb/acre): 80%; pest or weed control at 8966.8 g/ha [15]: 100%; pest or weed control at 2241.7 g/ha ([16]; 2 lb/acre): 90%; pest or weed control at 4483.4 g/ha ([16]; 4 lb/acre): 100%; pest or weed control at 8966.8 g/ha [16]: 100%; pest or weed control ([17]; 2 lb/acre): 90%; pest or weed control at 4483.4 g/ha ([17]; 4 lb/acre): 90%; pest or weed control at 8966.8 g/ha [17]: 90%; pest or weed control at 2241.7 g/ha ([18]; 2 lb/acre): 80%; pest or weed control at 4483.4 g/ha ([18]; 4 lb/acre): 60%; pest or weed control at 8966.8 g/ha [18]: 70%

Question: Which results are given for `CNC(=O)N(C)c1nnc(SC)s1` [Example 38]?
Answer: pest or weed control at 8966.8 g/ha [1]: 80%; pest or weed control at 8966.8 g/ha [2]: 100%; pest or weed control at 8966.8 g/ha [3]: 100%; pest or weed control at 8966.8 g/ha [4]: 90%; pest or weed control at 8966.8 g/ha [5]: 100%; pest or weed control at 8966.8 g/ha [6]: 100%; pest or weed control at 8966.8 g/ha [7]: 90%; pest or weed control at 8966.8 g/ha [8]: 100%; pest or weed control at 8966.8 g/ha [9]: 80%; pest or weed control at 8966.8 g/ha [10]: 100%; pest or weed control at 8966.8 g/ha [11]: 100%; pest or weed control at 8966.8 g/ha [12]: 100%; pest or weed control at 8966.8 g/ha [13]: 80%; pest or weed control at 8966.8 g/ha [14]: 90%; pest or weed control at 8966.8 g/ha [15]: 100%; pest or weed control at 8966.8 g/ha [16]: 100%; pest or weed control at 8966.8 g/ha [17]: 100%; pest or weed control at 8966.8 g/ha [18]: 80%
